Assay results: EPA's ToxValDB 9.5 (doi:10.2903/j.efsa.2010.1445)

Assays:
Typhlodromus pyri = conditions: not reported; mortality
Daphnia magna = conditions: chronic/long-term; duration: 21 days
Tagia sp. = conditions: acute; mortality
Pimephales promelas = conditions: chronic/long-term; duration: 33 days
Anatidae = conditions: for LD50: oral, mortality
Oncorhynchus mykiss = conditions: acute; duration: 96 hours; mortality
Oryctolagus sp. = conditions: developmental; development
Lepomis macrochirus = conditions: acute; duration: 96 hours; mortality
Apis mellifera = conditions: acute; duration: 48 hours; dermal; mortality
Rattus norvegicus = conditions: acute; oral; mortality
[1] = chronic/long-term; development
Coturnix coturnix = conditions: for LD50: acute, oral, mortality

Work on `N#CCNC(=O)c1cnccc1C(F)(F)F` [Flonicamid] yielded an LEL (Typhlodromus pyri) of 80 g/ha, an NOEC (Daphnia magna) of 3.1 mg/L and an LC50 (Tagia sp.) greater than 1000 mg/kg. The NOEC (Pimephales promelas) was 10 mg/L, the LD50 (Anatidae; acute, unspecified, F) was 1590 mg/kg and the LD50 (Anatidae; acute, unspecified, M) was 2620 mg/kg. It also gave an NOEL (Anatidae; reproductive) of 59 mg/kg-day, an LD50 (Anatidae; short-term, feed) greater than 302 mg/kg-day and an LC50 (Oncorhynchus mykiss) greater than 100 µg/mL. It also gave an NOAEL (Oryctolagus sp.) of 2.5 mg/kg-day, an LC50 (Lepomis macrochirus) greater than 100 µg/mL and an LD50 (Apis mellifera) greater than 51.1 µg/piece. For the same compound, the LD50 (Rattus norvegicus) was 884 mg/kg, the LC50 (Bibionidae; acute, duration: 48 hours, mortality) was greater than 200 µg/mL and the NOEC (Bibionidae; chronic/long-term, duration: 28 days) was 25 mg/L. It also gave an NOEL [1] of 25 mg/kg-day, an LD50 (Coturnix coturnix; M/F) greater than 2000 mg/kg and an LD50 (Coturnix coturnix; diet) greater than 411 mg/kg-day. For the same compound, the NOEL (Coturnix coturnix; reproduction developmental) was 90 mg/kg-day.
